Data on ten compounds can be found in patent US9422293B2 (priority 2006, dated 2016).

Molecules are shown by their SMILES. Structures can show the parent of a compound that is named as a salt.

In the assay the target is rat TRPV1 (Rattus norvegicus (Rat), UniProt O35433). As to conditions: read-out: Rat IC50.
Sequence of rat TRPV1 (O35433 whole entry): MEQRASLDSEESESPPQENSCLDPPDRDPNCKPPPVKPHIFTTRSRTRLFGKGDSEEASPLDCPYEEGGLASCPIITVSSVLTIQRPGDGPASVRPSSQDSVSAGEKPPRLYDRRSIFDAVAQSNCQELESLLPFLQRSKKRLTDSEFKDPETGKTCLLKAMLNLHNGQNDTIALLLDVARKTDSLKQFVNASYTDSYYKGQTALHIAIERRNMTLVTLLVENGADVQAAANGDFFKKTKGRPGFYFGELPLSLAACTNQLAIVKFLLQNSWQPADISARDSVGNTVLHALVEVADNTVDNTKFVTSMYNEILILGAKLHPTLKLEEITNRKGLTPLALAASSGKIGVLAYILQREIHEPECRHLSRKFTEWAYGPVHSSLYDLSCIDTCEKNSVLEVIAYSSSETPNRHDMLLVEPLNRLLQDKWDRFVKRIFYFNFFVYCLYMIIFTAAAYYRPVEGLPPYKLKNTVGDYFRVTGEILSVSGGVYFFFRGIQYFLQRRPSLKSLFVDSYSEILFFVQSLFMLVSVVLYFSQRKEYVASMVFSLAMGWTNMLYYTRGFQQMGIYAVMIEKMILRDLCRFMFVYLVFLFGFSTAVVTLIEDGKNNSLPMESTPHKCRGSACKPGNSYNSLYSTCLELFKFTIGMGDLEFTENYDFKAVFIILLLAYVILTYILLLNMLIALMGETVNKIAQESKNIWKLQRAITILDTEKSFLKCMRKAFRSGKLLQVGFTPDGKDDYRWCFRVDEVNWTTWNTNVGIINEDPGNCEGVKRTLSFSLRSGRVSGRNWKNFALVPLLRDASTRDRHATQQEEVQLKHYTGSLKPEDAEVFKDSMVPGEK

Regarding `CN1CCN(c2nc3c(c(Nc4ccc(C(F)(F)F)cn4)n2)CCN(c2ncccc2C(F)(F)F)CC3)CC1` [Example 193, 2-(4-Methylpiperazin-1-yl)-7-[3-(trifluoromethyl)pyridin-2-yl]-N-[5-(trifluoromethyl)pyridin-2-yl]-6,7,8,9-tetrahydro-5H-pyrimido[4,5-d]azepin-4-amine], the IC50 worked out at 2.11 µM. For the compound `CC(C)(C(=O)O)c1ccc(Nc2nc(N3CCOCC3)nc3c2CCN(c2ncccc2C(F)(F)F)CC3)cc1` [Example 392, 2-Methyl-2-{4-[2-morpholin-4-yl-7-(3-trifluoromethyl-pyridin-2-yl)-6,7,8,9-tetrahydro-5H-pyrimido[4,5-d]azepin-4-ylamino]-phenyl}-propionic acid], the half-maximal inhibitory concentration (IC50) is 1.54 µM. As for `CC(Oc1nc2c(c(Nc3ccc(S(=O)(=O)C(F)(F)F)cc3)n1)CCN(c1ncccc1C(F)(F)F)CC2)C1CC1` (stereo not shown) [Example 317, 2-[(1-Cyclopropylethyl)oxy]-7-[3-(trifluoromethyl)pyridin-2-yl]-N-{4-[(trifluoromethyl)sulfonyl]phenyl}-6,7,8,9-tetrahydro-5H-pyrimido[4,5-d]azepin-4-amine], the figure is 0.61 µM; as for `FC(F)(F)c1ccc(Nc2nc(N3CCCCC3)nc3c2CCN(c2ncccc2C(F)(F)F)CC3)nc1` [Example 250, 2-Piperidin-1-yl-7-[3-(trifluoromethyl)pyridin-2-yl]-N-[5-(trifluoromethyl)pyridin-2-yl]-6,7,8,9-tetrahydro-5H-pyrimido[4,5-d]azepin-4-amine], 0.09 µM; as for `O=S(=O)(c1ccc(Nc2nc(OC3CCCC3)nc3c2CCN(c2ncccc2C(F)(F)F)CC3)cc1)N1CCCC1` [Example 333, 2-(Cyclopentyloxy)-N-[4-(pyrrolidin-1-ylsulfonyl)phenyl]-7-[3-(trifluoromethyl)pyridin-2-yl]-6,7,8,9-tetrahydro-5H-pyrimido[4,5-d]azepin-4-amine], 0.04 µM.

In the case of `FC(F)(F)c1ccc(Nc2nc(-c3ccccn3)nc3c2CCN(c2ncccc2C(F)(F)F)CC3)cc1Cl` [Example 173, N-[3-Chloro-4-(trifluoromethyl)phenyl]-2-pyridin-2-yl-7-[3-(trifluoromethyl)pyridin-2-yl]-6,7,8,9-tetrahydro-5H-pyrimido[4,5-d]azepin-4-amine trifluoroacetic acid salt], the IC50 stood at 0.21 µM. As for `O=S(=O)(c1ccc(Nc2nc(OC3CCCC3)nc3c2CCN(c2ncccc2C(F)(F)F)CC3)cc1)C(F)(F)F` [Example 319, 2-(Cyclopentyloxy)-7-[3-(trifluoromethyl)pyridin-2-yl]-N-{4-[(trifluoromethyl)sulfonyl]phenyl}-6,7,8,9-tetrahydro-5H-pyrimido[4,5-d]azepin-4-amine], the figure is 0.24 µM; as for `FC(F)(F)c1ccc(Nc2nc(-c3cccnc3)nc3c2CCN(c2ncccc2C(F)(F)F)CC3)cc1` [Example 176, 2-Pyridin-3-yl-N-[4-(trifluoromethyl)phenyl]-7-[3-(trifluoromethyl)pyridin-2-yl]-6,7,8,9-tetrahydro-5H-pyrimido[4,5-d]azepin-4-amine trifluoroacetic acid salt], 0.81 µM. As for `CC(C)N(C)c1nc2c(c(Nc3ccc(C(F)(F)F)cc3)n1)CCN(c1ncccc1C(F)(F)F)CC2` [Example 272, N^2-Methyl-N^2-(1-methylethyl)-N^4-[4-(trifluoromethyl)phenyl]-7-[3-(trifluoromethyl)pyridin-2-yl]-6,7,8,9-tetrahydro-5H-pyrimido[4,5-d]azepine-2,4-diamine], the figure is 0.2 µM; as for `FC(F)(F)c1ccc(Nc2nc(N3CCOCC3)nc3c2CCN(c2ncccc2C(F)(F)F)CC3)cc1` [Example 40, [2-Morpholin-4-yl-7-(3-trifluoromethyl-pyridin-2-yl)-6,7,8,9-tetrahydro-5H-pyrimido[4,5-d]azepin-4-yl]-(4-trifluoromethyl-phenyl)-amine], 0.056 µM.
